The record followed here is patent publication US9963464B2, “Macrocyclic compounds” (Bayer Pharma Aktiengesellschaft, priority 2014, dated 2018).

The structures appear in SMILES notation.

The target in test [1] is T1, CDK9/CycT1 (Homo sapiens, UniProt P50750).
T1 construct: Recombinant full-length His-tagged human CDK9 and CycT1; His; purchased Invitrogen PV4131; host or cells: insect cells
Briefly: CDK9/CycT1 high ATP kinase assay (TR-FRET, Method 1b). The format is biochemical. The conditions noted are these: for IC50: Method 1b, 2 mM ATP; for Selectivity high ATP CDK9 over high ATP CDK2: IC50 (high ATP CDK2)/IC50 (high ATP CDK9): Methods 1b and 2b, minimal values where CDK9 IC50 is at the assay limit. As for the experimental part:
1b. CDK9/CycT1 High ATP Kinase Assay
CDK9/CycT1-inhibitory activity of compounds of the present invention at a high ATP concentration after preincubation of enzyme and test compounds was quantified employing the CDK9/CycT1 TR-FRET assay as described in the following paragraphs.
Recombinant full-length His-tagged human CDK9 and CycT1, expressed in insect cells and purified by Ni-NTA affinity chromatography, were purchase from Invitrogen (Cat. No PV4131). As substrate for the kinase reaction biotinylated peptide biotin-Ttds-YISPLKSPYKISEG (C-terminus in amid form) was used which can be purchased e.g. from the company JERINI peptide technologies (Berlin, Germany). For the assay 50 nl of a 100 fold concentrated solution of the test compound in DMSO was pipetted into a black low volume 384 well microtiter plate (Greiner Bio-One, Frickenhausen, Germany), 2 μl of a solution of CDK9/CycT1 in aqueous assay buffer [50 mM Tris/HCl pH 8.0, 10 mM MgCl2, 1.0 mM dithiothreitol, 0.1 mM sodium ortho-vanadate, 0.01% (v/v) Nonidet-P40 (Sigma)] were added and the mixture was incubated for 15 min at 22° C. to allow pre-binding of the test compounds to the enzyme before the start of the kinase reaction. […] The concentration of CDK9/CycT1 was adjusted depending of the activity of the enzyme lot and was chosen appropriate to have the assay in the linear range, typical concentrations were in the range of 0.5 μg/mL. The reaction was stopped by the addition of 5 μl of a solution of TR-FRET detection reagents (0.2 μM streptavidine-XL665 [Cisbio Bioassays, Codolet, France] and 1 nM anti-RB(pSer807/pSer811)-antibody from BD Pharmingen [#558389] and 1.2 nM LANCE EU-W1024 labeled anti-mouse IgG antibody [Perkin-Elmer, product no. AD0077]) in an aqueous EDTA-solution (100 mM EDTA, 0.2% (w/v) bovine serum albumin in 100 mM HEPES pH 7.5).
The resulting mixture was incubated 1 h at 22° C. to allow the formation of complex between the phosphorylated biotinylated peptide and the detection reagents. Subsequently the amount of phosphorylated substrate was evaluated by measurement of the resonance energy transfer from the Eu-chelate to the streptavidine-XL. Therefore, the fluorescence emissions at 620 nm and 665 nm after excitation at 350 nm was measured in a HTRF reader, e.g. a Rubystar (BMG Labtechnologies, Offenburg, Germany) or a Viewlux (Perkin-Elmer). The ratio of the emissions at 665 nm and at […] was taken as the measure for the amount of phosphorylated substrate. The data were normalised (enzyme reaction without inhibitor=0% inhibition, all other assay components but no enzyme=100% inhibition).
Background: In TR-FRET formats the signal depends on donor and acceptor labels being close together.

The subject of test [2] is NCI-H460 cells. Briefly: Proliferation assay NCI-H460. The format is cell-based, human. The conditions noted are these: Homo sapiens, NCI-H460, 96 h, 4 days, crystal violet; read-out: Inhibition of NCI-H460 cell proliferation IC50. As for the experimental part:
(§1) Cultivated tumour cells (HeLa, human cervical tumour cells, ATCC CCL-2; NCI-H460, human non-small cell lung carcinoma cells, ATCC HTB-177; A2780, human ovarian carcinoma cells, ECACC #93112519; DU 145, hormone-independent human prostate carcinoma cells, ATCC HTB-81; HeLa-MaTu-ADR, multidrug-resistant human cervical carcinoma cells, EPO-GmbH Berlin; Caco-2, human colorectal carcinoma cells, ATCC HTB-37; B16F10, mouse melanoma cells, ATCC CRL-6475) were plated at a density of 5,000 cells/well (DU145, HeLa-MaTu-ADR), 3,000 cells/well (NCI-H460, HeLa), 2,500 cells/well (A2780), 1,500 cells/well (Caco-2), or 1,000 cells/well (B16F10) in a 96-well multititer plate in 200 μL of their respective growth medium supplemented 10% fetal calf serum. After 24 hours, the cells of one plate (zero-point plate) were stained with crystal violet (see below), while the medium of the other plates was replaced by fresh culture medium (200 μl), to which the test substances were added in various concentrations (0 μM, as well as in the range of 0.001-10 μM). The cells were incubated for 4 days in the presence of test substances. Cell proliferation was determined by staining the cells with crystal violet: the cells were fixed by adding 20 μl/measuring point of an 11% glutaric aldehyde solution for 15 minutes at room temperature. After three washing cycles of the fixed cells with water, the plates were dried at room temperature. The cells were stained by adding 100 μl/measuring point of a 0.1% crystal violet solution (pH 3.0). After three washing cycles of the stained cells with water, the plates were dried at room temperature. The dye was dissolved by adding 100 μl/measuring point of a 10% acetic acid solution. The extinction was determined by photometry at a wavelength of 595 nm. The change of cell number, in percent, was calculated by normalization of the measured values to the extinction values of the zero-point plate (=0%) and the extinction of the untreated (0 μm) cells (=100%). The IC50 values (inhibitory concentration at 50% of maximal effect) were determined by means of a 4 parameter fit. Non-adherent MOLM-13 human acute myeloid leukemia cells (DSMZ ACC 554) were seeded at a density of 5,000 cells/well in a 96-well multititer plate in 100 μL of growth medium supplemented 10% fetal calf serum. After 24 hours, cell viability of one plate (zero-point plate) was determined with the Cell Titre-Glo Luminescent Cell Viability Assay (Promega), while 50 μL of test compound containing medium was added to the wells of the other plates (final concentrations in the range of 0.001-1 μM and DMSO controls). Cell viability was assessed after 72-hour exposure with the Cell Titre-Glo Luminescent Cell Viability Assay (Promega). IC50 values (inhibitory concentration at 50% of maximal effect) were determined by means of a 4 parameter fit on measurement data which were normalized to vehicle (DMSO) treated cells (=100%) and measurement readings taken immediately before compound exposure (=0%).

In test [3] the test system is Caco-2 cells. The test can be described thus: Proliferation assay Caco-2. The settings on record: Homo sapiens, Caco-2, 96 h, 4 days, crystal violet; read-out: Inhibition of Caco-2 cell proliferation IC50. The test is classed as cell-based, human. As for the experimental part:
as §1

Test [4] concerns HeLa-MaTu-ADR cells. Briefly: Proliferation assay HeLa-MaTu-ADR. The format is cell-based, human. The settings on record: Homo sapiens, 96 h, 4 days, crystal violet; read-out: Inhibition of HeLa-MaTu-ADR cell proliferation IC50. As for the experimental part:
as §1

T1 sequence (P50750 whole entry): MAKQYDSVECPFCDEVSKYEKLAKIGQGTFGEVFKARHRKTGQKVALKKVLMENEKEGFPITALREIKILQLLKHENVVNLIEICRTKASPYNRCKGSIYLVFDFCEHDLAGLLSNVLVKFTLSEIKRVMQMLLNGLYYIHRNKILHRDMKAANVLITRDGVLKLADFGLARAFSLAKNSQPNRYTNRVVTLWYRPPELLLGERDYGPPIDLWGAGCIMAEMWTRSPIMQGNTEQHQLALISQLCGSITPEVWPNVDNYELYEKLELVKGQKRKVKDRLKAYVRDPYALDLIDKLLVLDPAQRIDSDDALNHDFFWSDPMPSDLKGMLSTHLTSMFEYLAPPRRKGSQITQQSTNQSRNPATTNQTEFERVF
T1 sequence (O60563 whole entry partner): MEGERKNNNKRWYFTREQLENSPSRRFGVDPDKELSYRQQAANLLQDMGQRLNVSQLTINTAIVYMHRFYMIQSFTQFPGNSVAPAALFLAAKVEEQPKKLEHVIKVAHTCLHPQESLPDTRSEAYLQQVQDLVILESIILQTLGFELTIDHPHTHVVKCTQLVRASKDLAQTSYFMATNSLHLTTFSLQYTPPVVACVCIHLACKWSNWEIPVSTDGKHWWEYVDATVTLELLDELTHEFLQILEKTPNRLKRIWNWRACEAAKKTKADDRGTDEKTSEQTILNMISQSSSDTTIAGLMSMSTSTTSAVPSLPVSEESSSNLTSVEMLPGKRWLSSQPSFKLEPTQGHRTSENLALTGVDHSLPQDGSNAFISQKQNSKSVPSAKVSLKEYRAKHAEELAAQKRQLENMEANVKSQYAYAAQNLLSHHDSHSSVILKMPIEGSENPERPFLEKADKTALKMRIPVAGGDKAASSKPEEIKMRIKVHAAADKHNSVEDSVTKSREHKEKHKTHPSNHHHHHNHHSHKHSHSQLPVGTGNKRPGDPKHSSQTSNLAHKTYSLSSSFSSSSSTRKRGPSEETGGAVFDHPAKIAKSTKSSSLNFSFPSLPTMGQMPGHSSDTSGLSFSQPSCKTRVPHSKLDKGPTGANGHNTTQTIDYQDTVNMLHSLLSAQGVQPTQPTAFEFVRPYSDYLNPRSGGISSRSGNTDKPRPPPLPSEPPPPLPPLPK

Consider `CS(=N)(=O)Cc1cc2cc(c1)OCCCCOc1cc(F)ccc1-c1nc(ncc1F)N2` (racemic) [Example 1, (rac)-16,20-Difluoro-9-[(S-methylsulfonimidoyl)methyl]-2,3,4,5-tetrahydro-12H-13,17-(azeno)-11,7-(metheno)-1,6,12,14-benzodioxadiazacyclononadecine], for which the IC50 came to 1.7 nM in test [1], 20 nM in test [2] and 9 nM in test [3]. Also, in test [1], the “Selectivity high ATP CDK9 over high ATP CDK2: IC50 (high ATP CDK2)/IC50 (high ATP CDK9)” value (“Selectivity high ATP CDK9” below) is 125.3.
Regarding `C[S+]([O-])Cc1cc2nc(c1)OCCCOc1cc(F)ccc1-c1cc(ncc1F)N2` (racemic) [Example 4, (rac)-15,19-Difluoro-8-[(methylsulfinyl)methyl]-3,4-dihydro-2H,11H-10,6-(azeno)-12,16-(metheno)-1,5,11,13-benzodioxadiazacyclooctadecine], the IC50 in test [1] came to 1.6 nM; in test [2], 12 nM; in test [4] it was 10 nM; in test [3], 10 nM. Besides, in test [1], the “Selectivity high ATP CDK9” value is listed as 19.6.
As for `CS(=N)(=O)Cc1cc2nc(c1)OCCCOc1cc(F)ccc1-c1cc(ncc1F)N2` (racemic) [Example 5, (rac)-15,19-Difluoro-8-[(S-methylsulfonimidoyl)methyl]-3,4-dihydro-2H,11H-10,6-(azeno)-12,16-(metheno)-1,5,11,13-benzodioxadiazacyclooctadecine], the IC50 was found to be 0.98 nM in test [1], 6 nM in test [2] and 4 nM in test [3]. Besides, in test [1], the “Selectivity high ATP CDK9” value came to 20.8.
On to `C[S+]([O-])Cc1cc2nc(c1)OCCOc1cc(F)ccc1-c1cc(ncc1F)N2` (racemic) [Example 10, (rac)-14,18-difluoro-7-[(methylsulfinyl)methyl]-2,3-dihydro-10H-9,5-(azeno)-11,15-(metheno)-1,4,10,12-benzodioxadiazacycloheptadecine], for which the IC50 is 27.8 nM in test [1], 393 nM in test [2], 476 nM in test [4] and 584 nM in test [3]. In test [1], the “Selectivity high ATP CDK9” value stood at 125.7.
Turning to `CS(=N)(=O)Cc1cc2nc(c1)OCCOc1cc(F)ccc1-c1cc(ncc1F)N2` (racemic) [Example 11, (rac)-14,18-difluoro-7-[(S-methylsulfonimidoyl)methyl]-2,3-dihydro-10H-9,5-(azeno)-11,15-(metheno)-1,4,10,12-benzodioxadiazacycloheptadecine], the IC50 was 3 nM in test [1], 186 nM in test [2], 185 nM in test [4] and 158 nM in test [3]. Also, the “Selectivity high ATP CDK9” value in test [1] was 702.
The corresponding values for `C[S+]([O-])Cc1cc2nc(c1)OCCCCOc1cc(F)ccc1-c1cc(ncc1F)N2` (racemic) [Example 13, (rac)-16,20-difluoro-9-[(methylsulfinyl)methyl]-2,3,4,5-tetrahydro-12H-11,7-(azeno)-13,17-(metheno)-1,6,12,14-benzodioxadiazacyclononadecine] are 3.2 nM, 33 nM, 31 nM, 22 nM and 35.3.
For `CS(=N)(=O)Cc1cc2nc(c1)OCCCCOc1cc(F)ccc1-c1cc(ncc1F)N2` (racemic) [Example 14, (rac)-16,20-difluoro-9-[(S-methylsulfonimidoyl)methyl]-2,3,4,5-tetrahydro-12H-11,7-(azeno)-13,17-(metheno)-1,6,12,14-benzodioxadiazacyclononadecine], the IC50 in test [1] amounted to 3.6 nM; in test [2] it was 19 nM; in test [4], 20 nM; in test [3] it was 13 nM. Further, the “Selectivity high ATP CDK9” value in test [1] is listed as 45.3.
The corresponding values for `CS(=N)(=O)Cc1cc2cc(c1)OCCCOc1cc(F)ccc1-c1nc(ncc1F)N2` (racemic) [Example 15, (rac)-15,19-difluoro-8-[(S-methylsulfonimidoyl)methyl]-3,4-dihydro-2H,11H-12,16-(azeno)-10,6-(metheno)-1,5,11,13-benzodioxadiazacyclooctadecine] are 1.9 nM, 30 nM, 14 nM, 17 nM and 123.6.
The corresponding values for `CS(=O)(Cc1cc2cc(c1)OCCCOc1cc(F)ccc1-c1nc(ncc1F)N2)=NC(=O)C(F)(F)F` (racemic) [Example 16, (rac)-N-[{[15,19-difluoro-3,4-dihydro-2H,11H-12,16-(azeno)-10,6-(metheno)-1,5,11,13-benzodioxadiazacyclooctadecin-8-yl]methyl}(methyl)oxido-λ^6-sulfanylidene]-2,2,2-trifluoroacetamide] are 3.9 nM, 26 nM, 12 nM, 15 nM and 172.
`CSCc1cc2nc(c1)OCCOc1cc(F)ccc1-c1cc(ncc1F)N2` [Example 9, 14,18-Difluoro-7-[(methylsulfanyl)methyl]-2,3-dihydro-10H-9,5-(azeno)-11,15-(metheno)-1,4,10,12-benzodioxadiazacycloheptadecine]: in test [1], the IC50 was 65 nM and the “Selectivity high ATP CDK9” value is on record as over 307. In addition, the IC50 in test [3] is 811 nM.
